# Measured values from patent US20210188930A1 (priority 2018, published 2021).
# Entries after “also recorded” stand apart in the source; their conditions may differ. Like-named read-outs stand apart in the source and are kept apart here.
# Columns and labels:
# p53-R282W = biological target: T1, p53-R282W (Homo sapiens, UniProt P04637, R282W); type: cell-based; details: p53-R282W on PUMA promoter, agents 24 hr (FIG. 37 and FIG. 41)
# T1 construct: pcDNA3.1 expressing human full length p53 was gift from Prof; Xin Lu; expressed in transfected cells; host or cells: H1299 (p53-null)
# NCI60 cell lines = type: cell-based, human; details: Struc. / WT / Null / Others, G150 retrieved by CellMiner
# p53-R172H = biological target: T2, p53-R172H (Mus musculus, UniProt P02340, R172H); type: cell-based
# T2 construct: endogenous in cells; host or cells: mouse embryonic fibroblasts, Trp53-R172H/R172H
# wtp53 = assay: Real time qPCR of p53 targets, HCT116 cells; type: cell-based, human; details: HCT116 expressing wtp53
# Method: Total RNA was isolated from cells using Total RNA Purification Kit (B518651, Sangon Biotech). 1 μg total RNA was reverse-transcribed using the GoScript®™ Reverse Transciptase System (A5001, Promega) following manufacturer's protocol. PCR was performed in triplicate using SYBR green mix (Applied Biosystems), and a ViiA™ 7 Real-Time PCR System (Applied Biosystems) under the following conditions: 10 min at 95° C. followed by 40 cycles of 95° C. for 15 s and 60° C. for 1 min. Specificity of the PCR product was checked for each primer set and samples from the melting curve analysis. Expression levels of targeted genes were normalized relative to levels of β-actin adopting comparative Ct method.
# T2 sequence (P02340 whole entry R172H): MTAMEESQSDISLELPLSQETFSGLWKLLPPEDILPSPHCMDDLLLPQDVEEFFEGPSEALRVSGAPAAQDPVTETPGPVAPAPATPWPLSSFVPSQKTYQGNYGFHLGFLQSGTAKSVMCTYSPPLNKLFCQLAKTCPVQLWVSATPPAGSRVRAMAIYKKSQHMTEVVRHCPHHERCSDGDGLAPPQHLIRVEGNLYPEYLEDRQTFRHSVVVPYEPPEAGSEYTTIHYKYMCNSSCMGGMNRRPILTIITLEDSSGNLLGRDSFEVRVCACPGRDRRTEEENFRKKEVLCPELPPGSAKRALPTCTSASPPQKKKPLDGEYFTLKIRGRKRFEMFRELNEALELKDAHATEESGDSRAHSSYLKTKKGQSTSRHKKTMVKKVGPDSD
molecule,measurement,setting,value
MIRA-1,enhancement of p53 transcriptional activity in luciferase assay,p53-R282W,negligible
O=C1C2CCN(CC2)C1(CO)CO [PRIMA-1],"selectivity among NCI60 cell lines by p53 status (G150), in words",NCI60 cell lines,"none of the reported compounds tested, including PRIMA-1 and NSC319726 survived the 4C screening"
same,"selectivity among NCI60 cell lines by p53 status (G150), in words",NCI60 cell lines; listed as NSC281668,No significant association
same,enhancement of p53 transcriptional activity in luciferase assay,p53-R282W,negligible
OCc1ccc(-c2ccc(-c3ccc(CO)s3)o2)s1 [RITA],enhancement of p53 transcriptional activity in luciferase assay,p53-R282W,negligible
Cc1c2ccncc2c(C)c2c1[nH]c1ccccc12 [Ellipticine],enhancement of p53 transcriptional activity in luciferase assay,p53-R282W,3.3 times
C=Cc1nc2ccccc2c(=O)[nH]1 [STIMA-1],enhancement of p53 transcriptional activity in luciferase assay,p53-R282W,negligible
potassium arsenite [NSC3060],"PAb246 epitope (folded mouse p53-R172H), in words",p53-R172H,measurable increase of PAb1620 epitopes and PAb246 (for mouse p53-R172H) epitopes
COc1ccc(/C=C/c2nc(NCCCN(C)C)c3ccccc3n2)cc1 [CP31398],enhancement of p53 transcriptional activity in luciferase assay,p53-R282W,1.5 times
COc1ccc(C2=N[C@@H](c3ccc(Cl)cc3)[C@@H](c3ccc(Cl)cc3)N2C(=O)N2CCNC(=O)C2)c(OC(C)C)c1 [Nutlin3],"mRNA levels of p53 targets, in words",wtp53,"significantly enhanced PUMA, PIG3, CDKN1A and MDM2 mRNA levels"
CCn1c2ccccc2c2cc(CNC)ccc21 [PhiKan083],enhancement of p53 transcriptional activity in luciferase assay,p53-R282W,negligible
C/C(=N\NC(=S)N1CCC1)c1ccccn1 [NSC319726],"selectivity among NCI60 cell lines by p53 status (G150), in words",NCI60 cell lines,"none of the reported compounds tested, including PRIMA-1 and NSC319726 survived the 4C screening; also recorded: No significant association"
same,enhancement of p53 transcriptional activity in luciferase assay,p53-R282W,1.5 times
